Data published in US9839618B2, “Compositions and methods relating to proliferative diseases” (The Penn State Research Foundation, priority 2010, dated 2017).
Read-outs that look alike come from different tables or passages of the source.

Legend:
[1] = test system: FF2441 normal human fibroblasts; assay: MTS assay viability IC50, normal fibroblasts; assay type: cell-based; details: Homo sapiens, FF2441; Table 5; read-out: IC50 Fibroblast FF2441
Experimental: (§1) The efficacy of leelamine to kill other cancer types is measured and the IC50 for cell lines derived from carcinomas of breast, lung, prostate, connective tissue, pancreas and colon determined. The MTS assay as described in Sharma, A. et al., Clin Cancer Res, 2009, 15:1674-85; and Madhunapantula, S. V. et al., Mol Cancer Ther, 2008, 7:1297-308 is used to establish the IC50 at 24, 48 and 72 hours of leelamine treatment for normal human epidermal melanocytes (FOM103), normal skin fibroblast cells (FF2441), normal skin keratinocytes (HFK) and compared to melanocytic lesion cells from the radial-, vertical- and metastatic melanoma stages. 5×10^3 cells per well in 100 μL of media are plated and grown in a 96-well plate for 48 to 72 hours and treated with either DMSO vehicle control or 0.62 to 40 μmol/L of leelamine for 24, 48 or 72 hours. IC50 values for each compound in μmol/L for respective cell lines are measured from three independent experiments using GraphPad Prism version 4.01 (GraphPad Software, La Jolla, Calif.). Leelamine is found to be not toxic to normal cells and effective to kill melanoma cells as well as non-melanoma cancer cells as shown in Table 1 in FIG. 20. Leelamine is 3- to 4-fold more specific at killing metastatic melanoma than normal cells, supporting cancer therapeutic utility at concentrations<2 μmol/L.
5×10^3 cells per well in 100 μL of media are plated and grown in a 96-well plate for 48 to 72 hours and treated with either DMSO vehicle control or 0.62 to 40 μmol/L of leelamine for 24, 48 or 72 hours. IC50 values for each compound in μmol/L for respective cell lines are measured from three independent experiments using GraphPad Prism version 4.01 (GraphPad Software, La Jolla, Calif.). […]
(§2) Dehydroabietylamine, its N-substituted derivatives and the corresponding dihydroabietylamine and its N-substituted derivatives are tested for their capability to inhibit cell growth of cancer cell lines, including melanoma (UACC 903, 1205Lu), breast (MCF-7), fibrosarcoma (HT-1080), colon (Caco-2), and prostate (PC-3) cancer cell lines. Viability and IC50 of normal human fibroblasts and cell lines from melanoma and other malignancies following treatment with all the agents are measured using the MTS assay (Promega, Madison, Wis.). Human fibroblast FF2441 cells, metastatic melanoma cell lines 1205 Lu and UACC 903 as well as cancer cell lines representing sarcoma (HT-1080), prostate (PC-3, LNCaP), breast (MCF-7) and lung (A-549) are maintained in DMEM (Invitrogen, Carlsbad, Calif.) supplemented with 10% FBS (Hyclone, Logan, Utah) in a 5% CO2 atmosphere, humidified 37° C. incubator. 5×10^3 cells per well in 100 μL of media are plated and grown in a 96-well plate for 48 to 72 h and treated with either DMSO vehicle control or 0.62 to 40 μmol/L for 24, 48 or 72 h. IC50 values for each compound in […] for respective cell lines are measured from three independent experiments using GraphPad Prism version 4.01 (GraphPad Software, La Jolla, Calif.). FIG. 52 is a graph showing IC50 values for leelamine and compounds 4a, 4b and 5a in treated fibroblasts (FF2441) compared to melanoma cells. Selectivity ratio here is defined as ratio of activity against fibroblasts compared to activity against melanoma cells. Leelamine is relatively selective with a ratio of >6 and >4 for UACC903 and 1205Lu melanoma cells. The selectivity ratio of compound 4a is ˜4 and ˜3 for UACC903 and 1205Lu and for compound 4b is ˜4 for both cell lines. The selectivity ratio of compound 5a is ˜4 for UACC903 and >2 for 1205Lu cells.

[2] = test system: UACC 903 metastatic melanoma cells; assay: MTS assay viability IC50, UACC 903; assay type: cell-based, human; details: for IC50: Homo sapiens, UACC-903
Experimental: as §1
(§3) 5×10^3 cells per well in 100 μL of media are plated and grown in a 96-well plate for 48 to 72 hours and treated with either DMSO vehicle control or 0.62 to 40 μmol/L of leelamine for 24, 48 or 72 hours. IC50 values for each compound in μmol/L for respective cell lines are measured from three independent experiments using GraphPad Prism version 4.01 (GraphPad Software, La Jolla, Calif.).
(§4) The IC50 and effect of liposomal preparations of leelamine on viability of normal human melanocytes, fibroblasts and melanoma cells UACC 903 and 1205 Lu are measured using the MTS assay (Promega, Madison, Wis.). Empty liposomes or liposomes containing abietic acid are used as controls. 5×10^3 cells per well in 100 μL of media are plated and grown in a 96-well plate for 48 or 72 hours for melanoma and normal cell lines, respectively. The cells are then treated with 0.62 to 40 μmol/L of liposome alone, a liposomal preparation of abietic acid, or with Nanolipolee-007 for 24 hours. IC50 values for each liposome in μmol/L for respective cell lines are measured from three independent experiments using GraphPad Prism version 4.01 (GraphPad Software, La Jolla, Calif.). Nanolipolee-007 retains the growth inhibitory activity of leelamine in killing melanoma cells in culture and specifically kills melanoma cells compared to normal cells, FIG. 24.
as §2, with “FIG. 52 is a graph showing IC50 values for leelamine and compounds 4a, 4b and 5a in treated fibroblasts (FF2441) compared to melanoma cells. Selectivity ratio here is defined as ratio of activity against fibroblasts compared to activity against melanoma cells. Leelamine is relatively selective with a ratio of >6 and >4 for UACC903 and 1205Lu melanoma cells. The selectivity ratio of compound 4a is ˜4 and ˜3 for UACC903 and 1205Lu and for compound 4b is ˜4 for both cell lines. The selectivity ratio of compound 5a is ˜4 for UACC903 and >2 for 1205Lu cells.” left out

[3] = test system: 1205 Lu metastatic melanoma cells; assay: MTS assay viability IC50, 1205 Lu; assay type: cell-based, human; details: for IC50: Homo sapiens, 1205Lu
Experimental: as §1, §3, §4
as §2, with “FIG. 52 is a graph showing IC50 values for leelamine and compounds 4a, 4b and 5a in treated fibroblasts (FF2441) compared to melanoma cells. Selectivity ratio here is defined as ratio of activity against fibroblasts compared to activity against melanoma cells. Leelamine is relatively selective with a ratio of >6 and >4 for UACC903 and 1205Lu melanoma cells. The selectivity ratio of compound 4a is ˜4 and ˜3 for UACC903 and 1205Lu and for compound 4b is ˜4 for both cell lines. The selectivity ratio of compound 5a is ˜4 for UACC903 and >2 for 1205Lu cells.” left out

[4] = test system: Breast (MCF-7) cancer cell line; assay: MTS assay viability IC50, MCF-7; assay type: cell-based; details: Homo sapiens, MCF7; Table 5
Experimental: as §2

[5] = test system: Prostate (PC-3) cancer cell line; assay: MTS assay viability IC50, PC-3; assay type: cell-based; details: Table 5
Experimental: as §2

[6] = test system: Prostate (LnCap) cancer cell line; assay: MTS assay viability IC50, LnCap; assay type: cell-based; details: Homo sapiens, Table 5
Experimental: as §2

[7] = test system: Fibrosarcoma (HT-1080) cancer cell line; assay: MTS assay viability IC50, HT-1080; assay type: cell-based; details: Homo sapiens, Table 5, read-out: IC50 Fibro Sarcoma (HT-1080)
Experimental: as §2

cancer cell line = assay: MTS assay viability IC50, A-459; assay type: cell-based; details: A459; Table 5; read-out: IC50 Liver (A-459)
Experimental: as §2

[8] = activity against fibroblasts FF2441 compared to melanoma cells

`CNC[C@]1(C)CCC[C@]2(C)C3CCC(C(C)C)=CC3=CCC12` (stereo partly drawn) [Compound 4b, {[(1R,4aR)-1,4a-dimethyl-7-(propan-2-yl)-1,2,3,4,4a,4b,5,6,10,10a-decahydrophenanthren-1-yl]methyl}(methyl)amine] gave an IC50 [1] of 9330 ± 1270 nM, an IC50 ([2]; Example 8, read-out: IC50 UACC 903) of 2360 nM and an IC50 ([2]; Table 4, read-out: IC50 Metastatic Melanoma Cell line UACC903) of 2360 ± 250 nM. It also gave an IC50 ([2]; Table 5, read-out: IC50 Melanoma (UACC903)) of 2360 ± 250 nM, an IC50 ([2]; Table 6, read-out: IC50 Metastatic melanoma UACC 903) of 2360 ± 250 nM and an IC50 ([2]; Table 7, read-out: IC50 (UACC903)) of 2360 nM. For the same compound, the “Selectivity ratio, fibroblasts versus UACC903” value [2, 8] was about 4, the IC50 ([3]; Example 8, read-out: IC50 1205Lu) was 2380 nM and the IC50 ([3]; Table 4, read-out: IC50 Metastatic Melanoma Cell line 1205Lu) was 2380 ± 140 nM. The IC50 ([3]; Table 6, read-out: IC50 Metastatic melanoma 1205 Lu) was 2380 ± 140 nM, the “Selectivity ratio, fibroblasts versus 1205Lu” value [3, 8] was about 4 and the IC50 [4] was 9040 ± 2430 nM. The IC50 [5] was 10700 ± 870 nM, the IC50 [6] was 22400 ± 3310 nM and the IC50 [7] was 4540 ± 870 nM. It also gave an IC50 (cancer cell line) of 15300 ± 1830 nM.
